# Assays:
# Test in all cases: relative viability (nuclei count vs DMSO), 5 days (fraction); higher = more cells survive
# [1] = tested on: HCC-366
# Method in brief: (§1)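 Each reported value is a median over duplicate plates. It expresses relative viability: treated-well nuclei count divided by vehicle-well nuclei count. Lung cancer cell lines in 1536-well plates were dosed by pin tool a day after seeding, alone with one drug or with a fixed anchor-drug dose plus five library-drug doses (not always all listed) in √10 steps, and nuclei were counted after 5 days.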
# [2] = tested on: NCI-H460
# Method in brief: as §1
# [3] = tested on: NCI-H1651
# Method in brief: as §1
# [4] = tested on: NCI-H1755
# Method in brief: as §1
# [5] = tested on: ABC-1
# Method in brief: as §1
# [6] = tested on: NCI-H2228
# Method in brief: as §1
# [7] = tested on: CAL-12T
# Method in brief: as §1
# [8] = tested on: PC-3 [JPC-3]
# Method in brief: as §1
# [9] = tested on: NCI-H2405
# Method in brief: as §1
# [10] = tested on: LOU-NH91
# Method in brief: as §1
# [11] = tested on: RERF-LC-KJ
# Method in brief: as §1
# [12] = tested on: ChaGo-K-1
# Method in brief: as §1
# [13] = tested on: NCI-H2087
# Method in brief: as §1
# [14] = tested on: UMC-11
# Method in brief: as §1
# [15] = tested on: NCI-H3122
# Method in brief: as §1
# [16] = tested on: NCI-H1734
# Method in brief: as §1
# [17] = tested on: HCC-78
# Method in brief: as §1
# [18] = tested on: LC-2-ad
# Method in brief: as §1
# [19] = tested on: LU99A
# Method in brief: as §1
compound,measurement,setting,value
Oc1nc(-c2ccc(C(F)(F)F)cc2)nc2c1CSCC2 [XAV939] + CC(C)C[C@H](NC(=O)[C@H](Cc1ccccc1)NC(=O)c1cnccn1)B(O)O [Bortezomib] (partner 0.002 µM),relative viability,[1]; first compound 0.08 µM,1.12
same,relative viability,[1]; first compound 0.253 µM,0.991
same,relative viability,[1]; first compound 0.8 µM,1.01
same,relative viability,[1]; first compound 2.53 µM,1.05
same,relative viability,[2]; first compound 0.08 µM,1.45
same,relative viability,[2]; first compound 0.253 µM,1.07
same,relative viability,[2]; first compound 0.8 µM,1.05
same,relative viability,[2]; first compound 2.53 µM,1.08
same,relative viability,[3]; first compound 0.08 µM,0.906
same,relative viability,[3]; first compound 0.253 µM,0.905
same,relative viability,[3]; first compound 0.8 µM,0.942
same,relative viability,[3]; first compound 2.53 µM,0.925
same,relative viability,[4]; first compound 0.08 µM,0.91
same,relative viability,[4]; first compound 0.253 µM,0.884
same,relative viability,[4]; first compound 0.8 µM,0.86
same,relative viability,[4]; first compound 2.53 µM,0.868
same,relative viability,[5]; first compound 0.08 µM,0.315
same,relative viability,[5]; first compound 0.253 µM,0.307
same,relative viability,[5]; first compound 0.8 µM,0.254
same,relative viability,[5]; first compound 2.53 µM,0.252
same,relative viability,[6]; first compound 0.08 µM,1.31
same,relative viability,[6]; first compound 0.253 µM,0.711
same,relative viability,[6]; first compound 0.8 µM,1.01
same,relative viability,[6]; first compound 2.53 µM,0.861
same,relative viability,[7]; first compound 0.08 µM,0.981
same,relative viability,[7]; first compound 0.253 µM,0.856
same,relative viability,[7]; first compound 0.8 µM,0.89
same,relative viability,[7]; first compound 2.53 µM,0.977
same,relative viability,[8]; first compound 0.08 µM,0.839
same,relative viability,[8]; first compound 0.253 µM,0.722
same,relative viability,[8]; first compound 0.8 µM,0.831
same,relative viability,[8]; first compound 2.53 µM,0.755
same,relative viability,[9]; first compound 0.08 µM,1.04
same,relative viability,[9]; first compound 0.253 µM,0.719
same,relative viability,[9]; first compound 0.8 µM,0.893
same,relative viability,[9]; first compound 2.53 µM,0.959
same,relative viability,[10]; first compound 0.08 µM,0.438
same,relative viability,[10]; first compound 0.253 µM,0.464
same,relative viability,[10]; first compound 0.8 µM,0.49
same,relative viability,[10]; first compound 2.53 µM,0.415
same,relative viability,[11]; first compound 0.08 µM,0.864
same,relative viability,[11]; first compound 0.253 µM,0.98
same,relative viability,[11]; first compound 0.8 µM,0.886
same,relative viability,[11]; first compound 2.53 µM,0.744
same,relative viability,[12]; first compound 0.08 µM,0.967
same,relative viability,[12]; first compound 0.253 µM,0.848
same,relative viability,[12]; first compound 0.8 µM,0.981
same,relative viability,[12]; first compound 2.53 µM,0.941
same,relative viability,[13]; first compound 0.08 µM,0.864
same,relative viability,[13]; first compound 0.253 µM,0.595
same,relative viability,[13]; first compound 0.8 µM,0.938
same,relative viability,[13]; first compound 2.53 µM,0.763
same,relative viability,[14]; first compound 0.08 µM,0.789
same,relative viability,[14]; first compound 0.8 µM,0.754
same,relative viability,[14]; first compound 2.53 µM,0.708
same,relative viability,[15]; first compound 0.08 µM,1.09
same,relative viability,[15]; first compound 0.253 µM,1.01
same,relative viability,[15]; first compound 0.8 µM,1.03
same,relative viability,[15]; first compound 2.53 µM,0.944
same,relative viability,[16]; first compound 0.08 µM,1.04
same,relative viability,[16]; first compound 0.253 µM,0.907
same,relative viability,[16]; first compound 0.8 µM,0.709
same,relative viability,[16]; first compound 2.53 µM,0.86
same,relative viability,[17]; first compound 0.08 µM,0.517
same,relative viability,[17]; first compound 0.253 µM,0.363
same,relative viability,[17]; first compound 0.8 µM,0.526
same,relative viability,[17]; first compound 2.53 µM,0.405
same,relative viability,[18]; first compound 0.08 µM,1.01
same,relative viability,[18]; first compound 0.253 µM,0.919
same,relative viability,[18]; first compound 0.8 µM,0.984
same,relative viability,[18]; first compound 2.53 µM,0.887
same,relative viability,[19]; first compound 0.08 µM,1.26
same,relative viability,[19]; first compound 0.253 µM,0.714
same,relative viability,[19]; first compound 0.8 µM,1.01
same,relative viability,[19]; first compound 2.53 µM,1.19

# Reference: the supplement of paper PMC10307832
